For this experiment, the system named is E.G7-OVA tumors. The experiment can be described thus: Oral Cbl inhibitor treatment with expanded OT-1 cells in tumor-bearing mice. The format is in vivo, mouse. The method, then:
Tumor volume was measured roughly every five days after cell transfer.
OT-1 cells were assessed in mouse blood 5 days and 20 days after transfer.

As for `C[C@H]1CCCN(Cc2cc3c(c(C(F)(F)F)c2)CN(c2cccc([C@]4(c5nncn5C)C[C@@H](C)C4)c2)C3=O)C1` [compound 116], the “Anti-tumor efficacy (tumor volume) of OT-1 cells” value (oral administration, OT-1 cells expanded with compound 103 plus IL-2, FIG. 18) is on record as “enhanced the anti-tumor efficacy”. In addition, the Survival of mice entry (oral administration, OT-1 cells expanded with compound 103 plus IL-2, FIG. 19) was “enhanced survival”. For the same compound, where the note is “oral, OT-1 cells expanded with Cbl inhibitor plus IL-2”, the “Persistence of OT-1 cells in mouse blood” value is “longer persistence”. Moreover, the “Frequency of OT-1 cells in mouse blood” value (oral, OT-1 cells expanded with Cbl inhibitor plus IL-2, 5 and 20 days after transfer) is “increased frequency”.

The values above are taken from US12121540B2, “CBL inhibitors and compositions for use in adoptive cell therapy” (Nurix Therapeutics, Inc., priority 2019, dated 2024).
